The results in this text go back to patent US7741281B2, “Hepatitis C virus inhibitors” (Bristol-Myers Squibb Company, priority 2005, dated 2010).

pEC50, pIC50: −log10 of the molar value.

For orientation: pEC50 means the EC50 on a negative log10 scale, so that one unit is a factor of ten. For orientation: pIC50 means the IC50 on a negative log10 scale, so that one unit is a factor of ten. Usually melting point stands for the temperature, or range, at which the solid turns liquid.

Data set [1] has as its system HCV replicon in HUH-7 cells. Description: HCV replicon FRET assay. Format: cell-based, HCV strain 1b. To be noted: Hepatitis C virus, Huh-7; HCV replicon; read-out: EC50 Activity Range. An excerpt:
An HCV replicon whole cell system was established as described by Lohmann V, Korner F, Koch J, Herian U, Theilmann L, Bartenschlager R., Science 285(5424):110-3 (1999). This system enabled us to evaluate the effects of our HCV Protease compounds on HCV RNA replication. Briefly, using the HCV strain 1b sequence described in the Lohmann paper (Assession number: AJ238799), an HCV cDNA was synthesized by Operon Technologies, Inc. (Alameda, Calif.), and the full-length replicon was then assembled in plasmid pGem9zf(+) (Promega, Madison, Wis.) using standard molecular biology techniques. The replicon consists of (i) the HCV 5′ UTR fused to the first 12 amino acids of the capsid protein, (ii) the neomycin phosphotransferase gene (neo), (iii) the IRES from encephalomyocarditis virus (EMCV), and (iv) HCV NS3 to NS5B genes and the HCV 3′ UTR. Plasmid DNAs were linearized with ScaI and RNA transcripts were synthesized in vitro using the T7 MegaScript transcription kit (Ambion, Austin, Tex.) according to manufacturer's directions. In vitro transcripts of the cDNA were transfected into the human hepatoma cell line, HUH-7. […] Resulting cell lines were characterized for positive and negative strand RNA production and protein production over time.
The HCV replicon FRET assay was developed to monitor the inhibitory effects of compounds described in the disclosure on HCV viral replication. HUH-7 cells, constitutively expressing the HCV replicon, were grown in Dulbecco's Modified Eagle Media (DMEM) (Gibco-BRL) containing 10% Fetal calf serum (FCS) (Sigma) and 1 mg/ml G418 (Gibco-BRL). Cells were seeded the night before (1.5×10^4 cells/well) in 96-well tissue-culture sterile plates. Compound and no compound controls were prepared in DMEM containing 4% FCS, 1:100 Penicillin/Streptomysin (Gibco-BRL), 1:100 L-glutamine and 5% DMSO in the dilution plate (0.5% DMSO final concentration in the assay). Compound/DMSO mixes were added to the cells and incubated for 4 days at 37° C. After 4 days, cells were first assessed for cytotoxicity using alamar Blue (Trek Diagnotstic Systems) for a CC50 reading. The toxicity of compound (CC50) was determined by adding 1/10th volume of alamar Blue to the media incubating the cells. After 4 hours, the fluorescence signal from each well was read, with an excitation wavelength at 530 nm and an emission wavelength of 580 nm, using the Cytofluor Series 4000 (Perspective Biosystems). Plates were then rinsed thoroughly with Phosphate-Buffered Saline (PBS) (3 times 150 μl). The cells were lysed with 25 μl of a lysis assay reagent containing an HCV protease substrate (5× cell Luciferase cell culture lysis reagent (Promega #El 53A) diluted to 1× with distilled water, NaCl added to 150 mM final, the FRET peptide substrate (as described for the enzyme assay above) diluted to 10 μM final from a 2 mM stock in 100% DMSO. […]. The plate was then placed into the Cytofluor 4000 instrument which had been set to 340 nm excitation/490 nm emission, automatic mode for 21 cycles and the plate read in a kinetic mode. EC50 determinations were carried out as described for the IC50 determinations.

The target of data set [2] is T1, HCV NS3/4A protease complex, BMS strain (UniProt P27958, species not given/STRAIN_BMS).
T1 construct: for H77 and J4L6S; fused on or other part: Three-lysine solubilizing tail at the end of NS4A, for the H77 and J4L6S constructs; Purification on Ni-NTA and the pET21b vector imply a His tag
T1 sequence (P27958 1027-1657, change not shown, one chain of several): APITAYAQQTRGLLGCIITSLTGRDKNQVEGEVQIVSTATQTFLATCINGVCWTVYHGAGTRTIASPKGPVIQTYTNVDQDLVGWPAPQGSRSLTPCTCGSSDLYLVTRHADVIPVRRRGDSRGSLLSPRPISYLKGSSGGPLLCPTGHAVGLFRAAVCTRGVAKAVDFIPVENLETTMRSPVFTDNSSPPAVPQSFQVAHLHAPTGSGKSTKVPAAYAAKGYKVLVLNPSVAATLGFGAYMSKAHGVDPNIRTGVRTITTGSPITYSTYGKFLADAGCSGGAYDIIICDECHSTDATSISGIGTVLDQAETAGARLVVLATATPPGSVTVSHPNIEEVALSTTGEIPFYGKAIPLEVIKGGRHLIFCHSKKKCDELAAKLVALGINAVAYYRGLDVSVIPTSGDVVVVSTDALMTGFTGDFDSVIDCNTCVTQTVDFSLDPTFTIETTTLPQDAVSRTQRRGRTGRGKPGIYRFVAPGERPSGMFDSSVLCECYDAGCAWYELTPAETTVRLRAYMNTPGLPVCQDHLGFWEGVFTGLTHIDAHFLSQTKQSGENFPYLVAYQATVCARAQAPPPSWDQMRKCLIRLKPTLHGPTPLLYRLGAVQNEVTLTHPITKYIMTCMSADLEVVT
Description: FRET peptide assay to monitor HCV NS3/4A proteolytic activity (BMS strain). The settings on record: NS3/4A BMS strain; read-out: IC50 Activity Range. Format: biochemical, HCV genotype 1a. An excerpt: HCV NS3 protease complexes, derived from the BMS strain, H77 strain or J4L6S strain, were generated, as described below. These purified recombinant proteins were generated for use in a homogeneous assay (see below) to provide an indication of how effective compounds of the present disclosure would be in inhibiting HCV NS3 proteolytic activity.
Serum from an HCV-infected patient was obtained from Dr. T. Wright, San Francisco Hospital. An engineered full-length cDNA (compliment deoxyribonucleic acid) template of the HCV genome (BMS strain) was constructed from DNA fragments obtained by reverse transcription-PCR (RT-PCR) of serum RNA (ribonucleic acid) and using primers selected on the basis of homology between other genotype 1a strains. From the determination of the entire genome sequence, a genotype 1a was assigned to the HCV isolate according to the classification of Simmonds et al. (See P Simmonds, K A Rose, S Graham, S W Chan, F McOmish, B C Dow, E A Follett, P L Yap and H Marsden, J. Clin. Microbiol., 31(6), 1493-1503 (1993)). […] The infectious clones, H77 (1a genotype) and J4L6S (1b genotype) were obtained from R. Purcell (NIH) and the sequences are published in Genbank (AAB67036, see Yanagi, M., Purcell, R. H., Emerson, S. U. and Bukh, J. Proc. Natl. Acad. Sci. U.S.A. 94(16), 8738-8743 (1997); AF054247, see Yanagi, M., St Claire, M., Shapiro, M., Emerson, S. U., Purcell, R. H. and Bukh, J, Virology 244 (1), 161-172. (1998)).
The H77 and J4L6S strains were used for production of recombinant NS3/4A protease complexes. DNA encoding the recombinant HCV NS3/4A protease complex (amino acids 1027 to 1711) for these strains were manipulated as described by P. Gallinari et al. (see Gallinari P, Paolini C, Brennan D, Nardi C, Steinkuhler C, De Francesco R. Biochemistry. 38(17):5620-32, (1999)). Briefly, a three-lysine solubilizing tail was added at the 3′-end of the NS4A coding region. The cysteine in the P1 position of the NS4A-NS4B cleavage site (amino acid 1711) was changed to a glycine to avoid the proteolytic cleavage of the lysine tag. Furthermore, a cysteine to serine mutation was introduced by PCR at amino acid position 1454 to prevent the autolytic cleavage in the NS3 helicase domain. The variant DNA fragment was cloned in the pET21b bacterial expression vector (Novagen) and the NS3/4A complex was expressed in Escherichia. coli strain BL21 (DE3) (Invitrogen) following the protocol described by P. Gallinari et al. (see Gallinari P, Brennan D, Nardi C, Brunetti M, Tomei L, Steinkuhler C, De Francesco R., J Virol. 72(8):6758-69 (1998)) with modifications. Briefly, the NS3/4A protease complex expression was induced with 0.5 millimolar (mM) Isopropyl β-D-1-thiogalactopyranoside (IPTG) for 22 hours (h) at 20° C. A typical fermentation (1 Liter (L)) yielded approximately 10 grams (g) of wet cell paste. The cells were resuspended in lysis buffer (10 mL/g) consisting of 25 mM N-(2-Hydroxyethyl)Piperazine-N′-(2-Ethane Sulfonic acid) (HEPES), pH 7.5, 20% glycerol, 500 mM Sodium Chloride (NaCl), 0.5% Triton X-100, 1 microgram/milliliter (“μg/mL”) lysozyme, 5 mM Magnesium Chloride (MgCl2), 1 μg/ml DnaseI, 5 mM β-Mercaptoethanol (βME), Protease inhibitor-Ethylenediamine Tetraacetic acid (EDTA) free (Roche), homogenized and incubated for 20 minutes (min) at 4° C. The homogenate was sonicated and clarified by ultra-centrifugation at 235000 g for 1 h at 4° C. Imidazole was added to the supernatant to a final concentration of 15 mM and the pH adjusted to 8.0. The crude protein extract was loaded on a Nickel-Nitrilotriacetic acid (Ni-NTA) column pre-equilibrated with buffer B (25 mM HEPES, pH 8.0, 20% glycerol, 500 mM NaCl, 0.5% Triton X-100, 15 mM imidazole, 5 mM βME). The sample was loaded at a flow rate of 1 mL/min. The column was washed with 15 column volumes of buffer C (same as buffer B except with 0.2% Triton X-100). The protein was eluted with 5 column volumes of buffer D (same as buffer C except with 200 mM Imidazole). […]

Regarding `CC(C)(C)OC(=O)N[C@H]1CCCOC/C=C\[C@@H]2C[C@@]2(C(=O)NS(=O)(=O)C2CC2)NC(=O)[C@@H]2C[C@@H](OC(C)(C)C)CN2C1=O` [Compound 6, (1S,4R,6S,14S,18R,7-cis)-18-tert-butoxy-14-tert-butoxycarbonylamino-4-cyclopropanesulfonylaminocarbonyl-2,15-dioxo-3,16-diaza-10-oxatricyclo[14.3.0.0^4,6]nonadec-7-ene], in data set [1], the negative logarithm of the EC50 (pEC50) was under 6.00. For the same compound, in data set [2], the pIC50 was 6.00 to 7.00.

Turning to `CC(C)(C)OC(=O)N[C@H]1CCCCC/C=C\[C@@H]2C[C@@]2(C(=O)NS(=O)(=O)C2CC2)NC(=O)[C@@H]2C[C@@H](Oc3ccc([N+](=O)[O-])cc3)CN2C1=O` [Compound 2], the negative logarithm of the EC50 (pEC50) in data set [1] is under 6.00. For the same compound, the pIC50 in data set [2] is over 7.00.

On to `CC(C)(C)OC(=O)N[C@H]1CCCOC/C=C\[C@@H]2C[C@@]2(C(=O)NS(=O)(=O)C2CC2)NC(=O)[C@@H]2C[C@@H](OCc3ccccc3)CN2C1=O` [Compound 5, (1S,4R,6S,14S,18R,7-cis)-18-benzyloxy-14-tert-butoxycarbonylamino-4-cyclopropanesulfonylaminocarbonyl-2,15-dioxo-3,16-diaza-10-oxatricyclo[14.3.0.0^4,6]nonadec-7-ene], for which the melting point lay in the range of 147 to 149 °C. In addition, the negative logarithm of the EC50 (pEC50) in data set [1] is under 6.00. In data set [2], the negative-log IC50 (pIC50) was over 7.00.

As for `CC(C)(C)OC(=O)N[C@H]1CCCCC/C=C\[C@@H]2C[C@@]2(C(=O)NS(=O)(=O)C2CC2)NC(=O)[C@@H]2C[C@@H](Oc3ccccn3)CN2C1=O` [Compound 1], in data set [1], the negative-log EC50 (pEC50) is 6.00 to 7.00. In data set [2], the pIC50 is over 7.00.
